Experimental data taken from ChEMBL document CHEMBL4433247, “Discovery of 2,3'-diindolylmethanes as a novel class of PCSK9 modulators” (Bioorg Med Chem Lett, 2019).

Legend:
Format in all cases: cell-based
[1] = biological target: T1, Proprotein convertase subtilisin/kexin type 9 (Homo sapiens, UniProt Q8NBP7); assay: Inhibition of human PCSK9 in HepG2 cells incubated for 48 hrs by AlphaLISA assay
HepG2 [2] = assay: Cytotoxicity against human HepG2 cells incubated for 24 hrs by MTT assay; details: hepg2, 24 h
HepG2 [3] = assay: Cytotoxicity against human HepG2 cells at <50 uM incubated for 24 hrs by MTT assay; details: hepg2, 24 h
[4] = biological target: T1, Proprotein convertase subtilisin/kexin type 9; assay: Inhibition of human PCSK9 in HepG2 cells incubated for 24 hrs followed by medium replenishment and measured after 24 hrs by ELISA

T1 sequence (Q8NBP7 31-152 limits assumed): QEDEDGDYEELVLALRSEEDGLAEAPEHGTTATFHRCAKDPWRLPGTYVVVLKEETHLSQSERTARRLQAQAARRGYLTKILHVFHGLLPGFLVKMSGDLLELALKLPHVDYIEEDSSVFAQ
T1 sequence (Q8NBP7 153-692 limits assumed): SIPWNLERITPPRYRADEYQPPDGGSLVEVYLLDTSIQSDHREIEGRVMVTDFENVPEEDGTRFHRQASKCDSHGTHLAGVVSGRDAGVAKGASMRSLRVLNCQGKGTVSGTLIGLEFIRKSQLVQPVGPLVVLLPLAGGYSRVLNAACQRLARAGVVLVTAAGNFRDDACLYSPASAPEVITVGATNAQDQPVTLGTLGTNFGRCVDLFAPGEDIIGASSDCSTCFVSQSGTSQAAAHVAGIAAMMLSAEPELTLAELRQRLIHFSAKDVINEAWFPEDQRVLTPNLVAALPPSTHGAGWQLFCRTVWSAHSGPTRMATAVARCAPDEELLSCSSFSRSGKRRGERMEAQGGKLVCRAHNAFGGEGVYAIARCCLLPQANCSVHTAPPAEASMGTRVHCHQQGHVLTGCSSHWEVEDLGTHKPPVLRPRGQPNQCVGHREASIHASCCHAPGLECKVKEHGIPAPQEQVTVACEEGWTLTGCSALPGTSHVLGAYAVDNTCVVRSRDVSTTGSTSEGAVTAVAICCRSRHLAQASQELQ

Compound	IC50 ([1]; read-out: IC50)	Activity (HepG2 [2])	Activity (HepG2 [3])	IC50 [4]	IC50 ([1]; hepg2)
Cc1ccc(S(=O)(=O)n2c(Cc3c[nH]c4c(Cl)cccc34)c(C)c3ccccc32)cc1	2.3 µM	> 50 µM	–	–	–
Fc1ccc2[nH]c(Cc3c[nH]c4c(Cl)cccc34)cc2c1	0.25 µM	> 50 µM	–	–	–
Cc1ccc2c(Cc3cc4ccccc4[nH]3)c[nH]c2c1	1.4 µM	45 µM	–	–	–
Cc1ccc(S(=O)(=O)n2c(Cc3cn(C)c4ccccc34)c(C)c3ccccc32)cc1	1.5 µM	45 µM	–	–	–
Clc1cccc2c(Cc3cc4ccccc4[nH]3)c[nH]c12	2.8 µM	> 50 µM	–	–	–
Cc1ccc(S(=O)(=O)n2c(Cc3cn(C)c4ccccc34)c(C(C)C)c3ccccc32)cc1	1.1 µM	> 50 µM	–	–	–
Cc1ccc(S(=O)(=O)n2c(Cc3cn(C)c4ccccc34)c(-c3ccccc3)c3ccccc32)cc1	2.3 µM	48 µM	–	–	–
Cc1cccc2c(Cc3cc4ccccc4[nH]3)c[nH]c12	0.9 µM	> 50 µM	–	–	–
Fc1ccc2[nH]c(Cc3c[nH]c4c(F)cccc34)cc2c1	–	–	Non-Toxic	0.202 µM	–
Clc1ccc2[nH]cc(Cc3cc4ccccc4[nH]3)c2c1	10 µM	> 50 µM	–	–	–
Cc1ccc2[nH]cc(Cc3cc4ccccc4[nH]3)c2c1	5.6 µM	> 50 µM	–	–	–
Brc1ccc2[nH]cc(Cc3cc4ccccc4[nH]3)c2c1	–	–	–	–	Not Active
Fc1cccc2c(Cc3cc4ccccc4[nH]3)c[nH]c12	0.3 µM	38 µM	–	–	–
